How the values were obtained:
Test in all cases: Bliss excess, mean over the matrix (fraction); higher = more synergy
[1] = system: ALL-SIL (T-Lymphoblastic Leukemia)
Method in brief: (§1)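 Cell lines in DMEM/F12 or RPMI with 10% FBS were plated in 1536-well plates, held 24 hours at 37°C, 5% CO2, then given two-drug dose matrices for 72 hours (DMSO typically 0.2%). Viability was read by CellTiter-Glo 2.0 luminescence and scaled as inhibition from 0 (vehicle wells) to 1 (blank wells). Combination Emax is the second-highest inhibition in the matrix; Bliss excess is observed combination effect minus expected EA + EB − EA·EB, EA and EB being single-agent effects.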

[2] = system: SKN (Other Solid Carcinomas)
Method in brief: as §1

[3] = system: NCI-H650 (Lung Adenocarcinoma)
Method in brief: as §1

[4] = system: COLO-668 (Small Cell Lung Carcinoma)
Method in brief: as §1

[5] = system: A4-Fuk (B-Lymphoblastic Leukemia)
Method in brief: as §1

[6] = system: ML-2 (Acute Myeloid Leukemia)
Method in brief: as §1

[7] = system: NCI-H522 (Lung Adenocarcinoma)
Method in brief: as §1

[8] = system: OE33 (Esophageal Adenocarcinoma)
Method in brief: as §1

[9] = system: NCI-H1838 (Lung Adenocarcinoma)
Method in brief: as §1

[10] = system: NCI-H2122 (Lung Adenocarcinoma)
Method in brief: as §1

[11] = system: ME-180 (Cervical Carcinoma)
Method in brief: as §1

[12] = system: MDA-MB-453 (Breast Carcinoma)
Method in brief: as §1

[13] = system: NCI-H1355 (Lung Adenocarcinoma)
Method in brief: as §1

[14] = system: MOLT-4 (T-Lymphoblastic Leukemia)
Method in brief: as §1

[15] = system: Mo-T (Other Blood Carcinomas)
Method in brief: as §1

[16] = system: LC-1-sq (Squamous Cell Lung Carcinoma)
Method in brief: as §1

COLO-679 (Melanoma) = system: COLO-679 (Melanoma)
Method in brief: as §1

[17] = system: HCC1500 (Breast Carcinoma)
Method in brief: as §1

[18] = system: G-401 (Other Solid Carcinomas)
Method in brief: as §1

SK-N-AS (Neuroblastoma) = system: SK-N-AS (Neuroblastoma)
Method in brief: as §1

SMILES	Bliss excess [1]	Bliss excess [2]	Bliss excess [3]	Bliss excess [4]	Bliss excess [5]	Bliss excess [6]	Bliss excess [7]	Bliss excess [8]	Bliss excess [9]	Bliss excess [10]	Bliss excess [11]	Bliss excess [12]	Bliss excess [13]	Bliss excess [14]	Bliss excess [15]	Bliss excess [16]	Bliss excess (COLO-679 (Melanoma))	Bliss excess [17]	Bliss excess [18]	Bliss excess (SK-N-AS (Neuroblastoma))
Cn1cnc2c(F)c(Nc3ccc(Br)cc3Cl)c(C(=O)NOCCO)cc21 [Selumetinib] + CCN(CCO)CCCOc1ccc2c(Nc3cc(CC(=O)Nc4cccc(F)c4)[nH]n3)ncnc2c1 [AZD2811] (first compound max 10 µM, 7x7, partner max 1 µM)	-0.0031	-0.068	0.0056	-0.0161	0.176	-0.0371	-0.0359	-0.0246	-0.0363	-0.0258	-0.0346	-0.026	0.0102	0.0174	-0.0328	-0.0324	-0.0381	-0.0123	0.0143	-0.0108
Cn1cnc2c(F)c(Nc3ccc(Br)cc3Cl)c(C(=O)NOCCO)cc21 [Selumetinib] + C[C@@H]1COCCN1C2=NC(=NC(=C2)C3(CC3)[S@](=N)(=O)C)C4=C5C=CNC5=NC=C4 [AZD6738] (first compound max 10 µM, 7x7, partner max 10 µM)	0.0106	0.0406	0.0926	0.038	-0.0481	-0.0373	-0.0653	-0.018	-0.101	0.0539	-0.0115	-0.05	-0.0213	-0.0181	-0.0055	0.0238	-0.0526	-0.0346	0.0257	-0.0048
CC(=O)Nc1cccc(-n2c(=O)n(C3CC3)c(=O)c3c(Nc4ccc(I)cc4F)n(C)c(=O)c(C)c32)c1 [Trametinib] + Cc1nc(-c2cn3c(n2)-c2ccc(-c4cnn(C(C)(C)C(N)=O)c4)cc2OCC3)n(C(C)C)n1 [Taselisib] (first compound max 1 µM, 7x7, partner max 10 µM)	0.267	-0.0353	0.136	0.289	0.127	0.197	0.0504	0.17	0.0104	0.0862	0.0713	-0.0279	0.0292	0.186	0.142	0.24	-0.0331	0.0452	0.0082	0.0104
CC1(C)CCC(CN2CCN(c3ccc(C(=O)NS(=O)(=O)c4ccc(NCC5CCOCC5)c([N+](=O)[O-])c4)c(Oc4cnc5[nH]ccc5c4)c3)CC2)=C(c2ccc(Cl)cc2)C1 [Venetoclax] + C1CN(CCC1(C(=O)N[C@@H](CCO)C2=CC=C(C=C2)Cl)N)C3=NC=NC4=C3C=CN4 [Capivasertib] (first compound max 1 µM, 7x7, partner max 3 µM)	-0.0261	-0.0299	-0.0395	0.0066	-0.035	0.03	-0.0292	-0.0059	-0.0097	0.0256	-0.0015	-0.0022	-0.0379	0.0315	-0.013	-0.0136	-0.0357	0.0321	-0.105	-0.0237
CC1(C)CCC(CN2CCN(c3ccc(C(=O)NS(=O)(=O)c4ccc(NCC5CCOCC5)c([N+](=O)[O-])c4)c(Oc4cnc5[nH]ccc5c4)c3)CC2)=C(c2ccc(Cl)cc2)C1 [Venetoclax] + C=CCn1c(=O)c2cnc(Nc3ccc(N4CCN(C)CC4)cc3)nc2n1-c1cccc(C(C)(C)O)n1 [AZD1775] (first compound max 1 µM, partner max 1 µM)	0.0792	0.0355	-0.0422	0.136	-0.0009	-0.0553	0.0162	-0.0144	-0.0334	-0.0409	-0.0001	0.0707	0.0069	0.117	-0.0213	-0.0039	-0.053	0.114	-0.0898	-0.07
CC1(C)CCC(CN2CCN(c3ccc(C(=O)NS(=O)(=O)c4ccc(NCC5CCOCC5)c([N+](=O)[O-])c4)c(Oc4cnc5[nH]ccc5c4)c3)CC2)=C(c2ccc(Cl)cc2)C1 [Venetoclax] + CCN(CCO)CCCOc1ccc2c(Nc3cc(CC(=O)Nc4cccc(F)c4)[nH]n3)ncnc2c1 [AZD2811] (first compound max 1 µM, 7x7, partner max 1 µM)	-0.0059	0.0005	-0.0114	0.0051	0.0781	0.0167	0.0172	-0.0188	0.0204	-0.0579	0.0083	-0.0169	-0.0219	-0.0368	-0.125	-0.0099	-0.0608	0.0905	-0.0473	-0.0071
CC1(C)CCC(CN2CCN(c3ccc(C(=O)NS(=O)(=O)c4ccc(NCC5CCOCC5)c([N+](=O)[O-])c4)c(Oc4cnc5[nH]ccc5c4)c3)CC2)=C(c2ccc(Cl)cc2)C1 [Venetoclax] + CN(C)CCCOc1ccc(-c2ccc3ncc4c(c3c2)n(C2CCOCC2)c(=O)n4C)cn1 [AZD0156] (first compound max 1 µM, 7x7, partner max 1 µM)	-0.0012	-0.0205	-0.0194	-0.0022	0.0004	-0.0728	-0.0134	-0.033	0.0303	0.0112	0.0092	-0.0225	-0.0429	0.0196	-0.0469	-0.0007	-0.0328	0.0766	-0.0712	-0.0469
CC1(C)CCC(CN2CCN(c3ccc(C(=O)NS(=O)(=O)c4ccc(NCC5CCOCC5)c([N+](=O)[O-])c4)c(Oc4cnc5[nH]ccc5c4)c3)CC2)=C(c2ccc(Cl)cc2)C1 [Venetoclax] + COc1cc(Nc2ncc3c(n2)-c2ccc(Cl)cc2C(c2c(F)cccc2OC)=NC3)ccc1C(=O)O [Alisertib] (first compound max 1 µM, 7x7, partner max 10 µM)	0.0202	-0.0051	-0.0361	0.066	-0.026	0.13	0.0305	0.0221	-0.0183	-0.0572	-0.0226	-0.0415	-0.0205	-0.0938	0.0928	-0.0116	0.0194	0.141	-0.0135	0.0947
CC1(C)CCC(CN2CCN(c3ccc(C(=O)NS(=O)(=O)c4ccc(NCC5CCOCC5)c([N+](=O)[O-])c4)c(Oc4cnc5[nH]ccc5c4)c3)CC2)=C(c2ccc(Cl)cc2)C1 [Venetoclax] + C[C@@H]1COCCN1C2=NC(=NC(=C2)C3(CC3)[S@](=N)(=O)C)C4=C5C=CNC5=NC=C4 [AZD6738] (first compound max 1 µM, 7x7, partner max 10 µM)	-0.0217	-0.0654	-0.0839	0.032	0.0028	0.0694	-0.0099	-0.0549	-0.0508	-0.0137	0.0165	-0.0492	-0.0593	0.0382	-0.0373	-0.0095	-0.0242	0.0413	-0.0944	-0.0222
CC1(C)CCC(CN2CCN(c3ccc(C(=O)NS(=O)(=O)c4ccc(NCC5CCOCC5)c([N+](=O)[O-])c4)c(Oc4cnc5[nH]ccc5c4)c3)CC2)=C(c2ccc(Cl)cc2)C1 [Venetoclax] + C[C@@H](Nc1cc(F)cc(F)c1)c1cc(C(=O)N(C)C)cc2c(=O)cc(N3CCOCC3)oc12 [AZD8186] (first compound max 1 µM, 7x7, partner max 3 µM)	0.0344	-0.023	-0.0257	0.0418	-0.0046	-0.0292	-0.0273	-0.0169	-0.031	0.0055	-0.015	-0.0313	-0.0256	-0.0204	0.0015	-0.0254	0.0001	0.0626	-0.0275	-0.0347
CC1(C)CCC(CN2CCN(c3ccc(C(=O)NS(=O)(=O)c4ccc(NCC5CCOCC5)c([N+](=O)[O-])c4)c(Oc4cnc5[nH]ccc5c4)c3)CC2)=C(c2ccc(Cl)cc2)C1 [Venetoclax] + Cc1cc2ncnn2cc1Nc1ncc2c(n1)n(C1CCOCC1)c(=O)n2C [AZD7648] (first compound max 1 µM, 7x7, partner max 10 µM)	-0.0022	-0.172	-0.0489	0.0355	-0.0185	0.0057	-0.0232	-0.0449	0.0538	0.0311	0.0013	-0.0037	-0.0124	0.0142	0.0426	0.0004	-0.0363	0.0586	-0.061	-0.0485
CC1(C)CCC(CN2CCN(c3ccc(C(=O)NS(=O)(=O)c4ccc(NCC5CCOCC5)c([N+](=O)[O-])c4)c(Oc4cnc5[nH]ccc5c4)c3)CC2)=C(c2ccc(Cl)cc2)C1 [Venetoclax] + Cn1cnc2c(F)c(Nc3ccc(Br)cc3Cl)c(C(=O)NOCCO)cc21 [Selumetinib] (first compound max 1 µM, 7x7, partner max 3 µM)	0.0035	-0.0664	-0.0217	0.116	0.0163	0.0747	-0.0215	-0.0192	-0.0013	0.0375	-0.01	-0.0284	-0.032	0.021	0.021	-0.0135	-0.0203	-0.023	-0.0264	0.0083
